In US9273057B2 (Bristol-Myers Squibb Company, priority 2012, dated 2016) one finds IC50 data, which are given here for 19 molecules.

Molecules are shown by their SMILES. Structures can show the parent of a compound that is named as a salt.

In this assay the target is CK2A1 (CK2α/β) (Homo sapiens, UniProt P68400). Kind of assay: CK2 kinase assay, CK2A1 (CK2α/β). Conditions: Table A; read-out: CK2A1 (CK2α/β) (IC50). It counts as biochemical.
CK2A1 (CK2α/β), sequence (P68400 whole entry, species assumed): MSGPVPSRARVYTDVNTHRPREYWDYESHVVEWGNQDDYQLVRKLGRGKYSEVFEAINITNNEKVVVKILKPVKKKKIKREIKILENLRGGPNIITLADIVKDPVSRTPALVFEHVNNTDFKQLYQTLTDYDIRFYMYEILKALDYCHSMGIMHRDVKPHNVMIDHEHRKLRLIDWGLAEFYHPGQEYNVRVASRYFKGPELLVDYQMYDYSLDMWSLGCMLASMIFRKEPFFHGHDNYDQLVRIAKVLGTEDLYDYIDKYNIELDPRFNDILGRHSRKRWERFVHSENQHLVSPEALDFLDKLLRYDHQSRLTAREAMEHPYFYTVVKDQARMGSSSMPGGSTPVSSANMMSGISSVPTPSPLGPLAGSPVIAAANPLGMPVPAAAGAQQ
CK2A1 (CK2α/β), sequence (P67870 whole entry partner, species assumed): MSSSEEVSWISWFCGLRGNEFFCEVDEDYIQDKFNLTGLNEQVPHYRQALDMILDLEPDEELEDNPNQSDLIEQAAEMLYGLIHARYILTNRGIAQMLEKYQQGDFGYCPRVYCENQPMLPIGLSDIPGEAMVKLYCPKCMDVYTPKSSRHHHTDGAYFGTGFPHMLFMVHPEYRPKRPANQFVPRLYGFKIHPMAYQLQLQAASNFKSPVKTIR
For `CC(=O)N1CCC2(CC1)CN(c1cc(C#N)cc(Nc3nc(NC4CC4)c4ncc(C#N)n4n3)c1Cl)C2` [Example 806, 2-((3-(7-acetyl-2,7-diazaspiro[3.5]nonan-2-yl)-2-chloro-5-cyanophenyl)amino)-4-(cyclopropylamino)imidazo[2,1-f][1,2,4]triazine-7-carbonitrile], the IC50 is 0.84 nM. Next, `CN1CC(NC2CCN(c3cc(C#N)cc(Nc4nc(NC5CC5)c5ncc(C#N)n5n4)c3Cl)CC2)CC1=O` (racemic) [Example 116, (+/−) 2-((2-chloro-5-cyano-3-(4-((1-methyl-5-oxo-3-pyrrolidinyl)amino)-1-piperidinyl)phenyl)amino)-4-(cyclopropylamino)imidazo [2,1-f][1,2,4]triazine-7-carbonitrile]: 0.68 nM; `CC(=O)N1CCC(C(F)c2cc(C#N)cc(Nc3nc(NC4CC4)c4ncc(C#N)n4n3)c2Cl)CC1` (stereo not shown) [Example 663, 2-((3-((1-acetylpiperidin-4-yl)fluoromethyl)-2-chloro-5-cyanophenyl)amino)-4-(cyclopropylamino)imidazo[2,1-f][1,2,4]triazine-7-carbonitrile]: 0.77 nM; `N#Cc1cc(Nc2nc(NC3CC3)c3ncc(C#N)n3n2)c(Cl)c(N2CCC3(CCCN3)C2)c1` (racemic) [Example 31, (+/−) 2-((2-chloro-5-cyano-3-(1,7-diazaspiro[4.4]non-7-yl)phenyl)amino)-4-(cyclopropylamino)imidazo [2,1-f][1,2,4]triazine-7-carbonitrile]: 0.61 nM.

As to `CCNc1nc(Nc2cc(C#N)cc(N3CC[C@@H](NC(=O)OC)[C@H](N[C@H](C)C(N)=O)C3)c2Cl)nn2c(C#N)cnc12` [Example 758, methl N-[(3R,4R)-3-{[(1S)-1-carbamoylethyl]amino}-1-(2-chloro-5-cyano-3-{[7-cyano-4-(ethylamino)imidazo[2,1-f][1,2,4]triazin-2-yl]amino}phenyl)piperidin-4-yl]carbamate], the IC50 amounted to 1.4 nM. In the case of `N#Cc1cc(Nc2nc(NC3CC3)c3ncc(C#N)n3n2)c(Cl)c(N2CC[C@@H](NC3COC3)[C@H](O)C2)c1` (racemic) [Example 301, (+/−)2-((2-chloro-5-cyano-3-((3R,4R)-3-hydroxy-4-(oxetan-3-ylamino)piperidin-1-yl)phenyl)amino)-4-(cyclopropylamino)imidazo[2,1-f][1,2,4]triazine-7-carbonitrile, HCl], the IC50 came to 0.72 nM. For the molecule `CC(O)C(=O)N1CC(N2CCN(c3cc(C#N)cc(Nc4nc(NC5CC5)c5ncc(C#N)n5n4)c3Cl)CC2)C1` (stereo not shown) [Example 487, 2-[(2-chloro-5-cyano-3-{4-[1-(2-hydroxypropanoyl)azetidin-3-yl]piperazin-1-yl}phenyl)amino]-4-(cyclopropylamino)imidazo[2,1-f][1,2,4]triazine-7-carbonitrile], the IC50 is 0.73 nM.

Take `Cc1nn(C)c(C)c1-c1cc(C#N)cc(Nc2nc(NC3CC3)c3ncc(C#N)n3n2)c1Cl` [Example 717, 2-((2-chloro-5-cyano-3-(1,3,5-trimethyl-1H-pyrazol-4-yl)phenyl)amino)-4-(cyclopropylamino)imidazo[2,1-f][1,2,4]triazine-7-carbonitrile]: the IC50 worked out at 1.38 nM. The result for `N#Cc1cc(Nc2nc(NC3CC3)c3ncc(C#N)n3n2)c(Cl)c(N2CCN(C(=O)C3CCCO3)CC2)c1` (racemic) [Example 84, (+/−) 2-((2-chloro-5-cyano-3-(4-(tetrahydro-2-furanylcarbonyl)-1-piperazinyl)phenyl)amino)-4-(cyclopropylamino) imidazo[2,1-f][1,2,4] triazine-7-carbonitrile] reads 0.5 nM; that for `CC(Cc1cc(Cl)c(Nc2nc(NC3CC3)c3ncc(C#N)n3n2)cc1C#N)CN1CCOCC1` (stereo not shown) [Example 721, 2-({2-chloro-5-cyano-4-[2-(morpholin-4-ylmethyl)propyl]phenyl}amino)-4-(cyclopropylamino)imidazo [2,1-f][1,2,4]triazine-7-carbonitrile], 1.35 nM. Next, `CN1CCN(C(CO)CCc2cc(C#N)cc(Nc3nc(NC4CC4)c4ncc(C#N)n4n3)c2Cl)CC1` (stereo not shown) [Example 723, 2-({2-chloro-5-cyano-3-[4-hydroxy-3-(4-methylpiperazin-1-yl)butyl]phenyl}amino)-4-(cyclopropylamino)imidazo [2,1-f][1,2,4]triazine-7-carbonitrile]: 1.92 nM. Next, `CC(C)(C(N)=O)N1CC2(CCN(c3cc(C#N)cc(Nc4nc(NC5CC5)c5ncc(C#N)n5n4)c3Cl)CC2)C1` [Example 803, 2-(7-(2-chloro-5-cyano-3-((7-cyano-4-(cyclopropylamino)imidazo[2,1-f][1,2,4]triazin-2-yl)amino)phenyl)-2,7-diazaspiro[3.5]nonan-2-yl)-2-methylpropanamide]: 2.8 nM; `COC[C@H](O)CN1CCN(c2cc(C#N)cc(Nc3nc(NC4CC4)c4ncc(C#N)n4n3)c2Cl)CC1` [Example 606, 2-[(2-chloro-5-cyano-3-{4-[(2R)-2-hydroxy-3-methoxypropyl]piperazin-1-yl}phenyl)amino]-4-(cyclopropylamino)imidazo [2,1-f][1,2,4]triazine-7-carbonitrile]: 0.72 nM. With `CN1CCCC(C(=O)N2CCN(c3cc(C#N)cc(Nc4nc(NC5CC5)c5ncc(C#N)n5n4)c3Cl)CC2)C1` (racemic) [Example 92, (+/−) 2-((2-chloro-5-cyano-3-(4-((1-methyl-3-piperidinyl)carbonyl)-1-piperazinyl)phenyl)amino)-4-(cyclopropylamino) imidazo[2,1-f][1,2,4] triazine-7-carbonitrile], the IC50 amounted to 1.12 nM.

As to `COC(=O)N[C@H]1CN(c2cc(C#N)cc(Nc3nc(NC4CC4)c4ncc(C#N)n4n3)c2Cl)C[C@H]1OC` [Example 14, methyl ((3S,4R)-1-(2-chloro-5-cyano-3-((7-cyano-4-(cyclopropylamino)imidazo [2,1-f][1,2,4]triazin-2-yl)amino)phenyl)-4-methoxy-3-pyrrolidinyl)carbamate], the IC50 is 0.7 nM. Consider `COCCN1CCN(c2cc(C#N)cc(Nc3nc(NC4CC4)c4ncc(C#N)n4n3)c2Cl)CC1` [Example 56], for which the IC50 stood at 1.14 nM. The result for `CN1C(=O)CNC12CCN(c1cc(C#N)cc(Nc3nc(NC4CC4)c4ncc(C#N)n4n3)c1Cl)CC2` (racemic) [Example 785, (+/−)-2-((2-chloro-5-cyano-3-(1-methyl-2-oxo-1,4,8-triazaspiro[4.5]decan-8-yl)phenyl)amino)-4-(cyclopropylamino)imidazo[2,1-f][1,2,4]triazine-7-carbonitrile] reads 6.67 nM; that for `CCNc1nc(Nc2cc(C#N)cc(N3CC[C@@H](NC(=O)OCCOCCOCCOCCOCCOCCOC)[C@H](O)C3)c2Cl)nn2c(C#N)cnc12` [Example 376, 2,5,8,11,14,17-hexaoxanonadecan-19-yl((3R,4R)-1-(2-chloro-5-cyano-3-((7-cyano-4-(ethylamino)imidazo[2,1-f][1,2,4]triazin-2-yl)amino)phenyl)-3-hydroxypiperidin-4-yl)carbamate], 0.83 nM; that for `N#Cc1cc(CN2CCC3(CC2)COC3)c(Cl)c(Nc2nc(NC3CC3)c3ncc(C#N)n3n2)c1` [Example 665, 2-((3-(2-oxa-7-azaspiro[3.5]nonan-7-ylmethyl)-2-chloro-5-cyanophenyl)amino)-4-(cyclopropylamino)imidazo[2,1-f][1,2,4]triazine-7-carbonitrile], 0.67 nM.
